For 36 compounds, melting point results are on record in a melting point compilation (Tetko et al.; mined from patent text by program, amines drawn as free bases though some values may be those of a salt).

`O=C(Nc1cccnc1)N1CCN(c2nc(-c3cccc(F)c3F)cs2)CC1` had a melting point of 172 to 173 °C.
Next, `Cc1c(C(=O)O)cc(Cl)c2c1C(=O)CCS2`: 190 to 192 °C; `O=C(NC1CCOCC1)c1ccc2nonc2c1`: 204 to 205 °C.
For the compound `Cn1c(=O)c2c(nc(N3CCC(NC(=O)OC(C)(C)C)C3)n2Cc2ccccc2Br)n(C)c1=O` (stereo unspecified), the melting point is 104 to 106 °C.
On to `Cc1ccoc1C(=O)Nc1c(C)cc(N2CCCOCC2)nc1N1CC[C@@H](F)C1`, for which the melting point fell in the range of 93 to 96 °C.
Next, `O=C(O)c1cnn2c(C(F)F)cc(-c3ccc(Cl)c(Cl)c3)nc12`: 263 °C; `COc1ccc(C(=O)Nc2ccccc2)c2c1OCC2CC(=O)O` (stereo unspecified): 248 to 251 °C.
`CN(C)c1cccc(CNc2nc(Nc3cccc(NS(C)(=O)=O)c3)nc3[nH]cnc23)c1` gave a melting point of 148 to 151 °C.
Next, `CN(C)CCCOc1ccc(-c2nn(CC(=O)O)c3ncccc23)cc1`: 221 to 223 °C.
The value for `Cc1cc2c(s1)c(=O)c(C(=O)O)cn2C` was 305 to 315 °C; that for `NC(=O)COCCN1CCN(C(c2ccccc2)c2ccccc2)CC1` was 119 to 120 °C.
Next, `O=S1(=O)CCN(c2ccc(O)cc2)CC1`: 153 to 155 °C.
Regarding `CN(C)CCOc1ccc(Cl)c(C(=O)NCC23CC4CC(CC(C4)C2)C3)c1`, the melting point fell in the range of 144 to 147 °C.
Next, `CCCCCCCCCCCCn1nnc(C(C(=O)Nc2c(C(C)C)cccc2C(C)C)(c2ccccc2)c2ccccc2)n1`: 154 to 156 °C.
The value for `CCCc1c(/C=C/c2cc(OC)cc(OC)c2)nc2ccc(C(=O)O)cn2c1=O` was 268 to 270 °C; that for `Cc1nc(N2CCN(CC3CC3(F)F)C2=O)sc1C(=O)NCc1cccnc1` (stereo unspecified) was 169 to 171 °C; that for `Cc1cccc(C)c1CNc1cc(C(=O)N(C)C)nc2c(CO)c(C)[nH]c12` was 301 °C.
On to `CC(=O)c1nc2cc(Cl)c(OCC(F)(F)F)cc2cc1OCc1ccccc1`, for which the melting point lay in the range of 110 to 112 °C.
The value for `OCCON=Cc1ccc(-c2ccccc2)nc1` was 100 to 101 °C.
For `CCN(CC)c1c(OC)cccc1C(=O)O`, the melting point was in the range of 68 to 71 °C.
Next, `C1=C2c3ccccc3C3CC2(CN1Cc1ccccc1)c1ccccc13` (stereo unspecified): 135 to 145 °C; `O=C(O)c1cc(=O)c2cc(-c3ccccc3)ccc2s1`: 220 °C.
Consider `CC(=O)OC1CC2C=CC3C4CCC(C(C)CCCC(C)C)C4(C)CCC3C2(C)C(OC(C)=O)C1` (stereo unspecified), for which the melting point lay in the range of 116 to 118 °C.
Next, `O=C(Nc1cc(Cl)cc(Cl)c1)Nc1ccc(Br)cc1-c1nnn[nH]1`: 263 to 264 °C.
`Cc1nnc(-c2ccc3occ(-c4ccc(S(=O)C(F)(F)F)cc4)c3c2)o1` (stereo unspecified) displayed a melting point of 183 to 184 °C.
For `CC1CC2C3CC(Cl)C4=CC(=O)C=CC4(C)C3C(O)CC2(C)C1C(=O)COC(=O)C(C)(C)C` (stereo unspecified), the melting point worked out at 189 °C.
Take `Cc1nc(C)c(Cl)c(NCc2nccc(OCCCCN3CCNCC3)c2C)n1`: the melting point fell in the range of 140 to 144 °C.
Next, `OCc1ccc2cc(Cl)ccc2c1`: 134 to 137 °C.
Next, `CCCC(=O)NC[C@@H]1C[C@H]1c1cccn2nc(C)cc12` (relative stereo): 82 to 84 °C; `O=C(O)c1cccc(F)c1Nc1ccccc1F`: 176 °C; `N#CC(Cn1ccnc1)(c1ccccc1)c1ccccn1` (stereo unspecified): 83 to 85 °C.
Next, `Cc1ccc(S(=O)(=O)c2nsc3nc4ccccc4n23)cc1`: 231 to 234 °C; `CCOC(=O)CNc1ncccc1NC(=O)c1ccccn1`: 98 to 100 °C.
Compound `CSc1csc2c1CCN(C)CC2c1ccccc1` (stereo unspecified) had a melting point of 93 °C.
Next, `CCOC(=O)c1c(O)c2ccc(F)cc2c(=O)n1CC(C)C`: 104 to 105 °C; `CCOC(=O)C(=CNC1CC1)C(=O)c1cc(F)c(F)c(OC)c1F`: 56 to 58 °C.

As usually defined, the melting point is the temperature, or range, at which the solid turns liquid.
